{"source": "paper PMC3994546", "about": "(Chemico-biological interactions, 2014)", "key": {"hSULT2A1 [1]": {"biological_target": "T1, hSULT2A1 (Homo sapiens, UniProt Q06520)", "T1 sequence (Q06520 1-285)": "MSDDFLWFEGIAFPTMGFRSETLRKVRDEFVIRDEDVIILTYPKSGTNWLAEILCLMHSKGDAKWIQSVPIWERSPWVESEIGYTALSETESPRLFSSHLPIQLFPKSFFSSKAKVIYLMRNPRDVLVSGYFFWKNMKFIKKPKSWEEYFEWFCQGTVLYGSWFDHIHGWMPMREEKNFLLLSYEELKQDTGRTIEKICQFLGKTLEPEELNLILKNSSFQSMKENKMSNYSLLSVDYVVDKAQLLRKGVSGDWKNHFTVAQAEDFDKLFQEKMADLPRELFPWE", "test": "Kinetics of inhibition of hSULT2A1-catalyzed sulfation of [3H]DHEA by OHPCBs", "format": "biochemical", "conditions": "for type of inhibition with respect to DHEA (best-fit kinetic model): fixed PAPS, varied DHEA and inhibitor, model chosen by R2 and AICc; for β value of partial noncompetitive inhibition equation: signifies formation of DHEA-sulfate in the presence of the inhibitor"}, "hSULT2A1 [2]": {"biological_target": "T1, hSULT2A1", "test": "Ligand binding to free hSULT2A1 by ANS fluorescence displacement", "conditions": "for difference in the multiphasic binding pattern in the presence or absence of either DHEA or PAP: with or without DHEA or PAP"}, "hSULT2A1 [3]": {"biological_target": "T1, hSULT2A1", "conditions": "cited from earlier work"}, "hSULT2A1 E-PAP complex": {"biological_target": "T2, hSULT2A1 E-PAP complex (Homo sapiens, UniProt Q06520)", "T2 sequence (Q06520 1-285)": "T1 sequence (Q06520 1-285)", "test": "Ligand binding to the hSULT2A1-PAP complex by ANS fluorescence displacement"}}, "note": "Like-named read-outs stand apart in the source and are kept apart here.", "data": [{"molecule": "Oc1ccc(-c2ccc(Cl)cc2)cc1O", "note": "[3’,4’-diOHPCB 3, 3’, 4’-dihydroxy-4-monochlorobiphenyl]", "values": [{"measurement": "Ki", "setting": "hSULT2A1 [1]", "value": "32 ± 2.3", "unit": "µM"}, {"measurement": "Kd", "setting": "hSULT2A1 [2]", "value": "1.17 ± 1.11", "unit": "µM"}, {"measurement": "Kd", "setting": "hSULT2A1 [2]; read-out: Kd2, binding to hSULT2A1 in the absence of substrates or products, free enzyme, two-site, nonspecific binding curve", "value": "41.9 ± 74.8", "unit": "µM"}]}, {"molecule": "Oc1ccc(-c2cccc(Cl)c2Cl)cc1O", "note": "[3’,4’-diOHPCB 5, 3’, 4’- dihydroxy-2,3-dichlorobiphenyl]", "values": [{"measurement": "Ki", "setting": "hSULT2A1 [1]", "value": "14 ± 0.8", "unit": "µM"}]}, {"molecule": "Oc1ccc(-c2ccc(Cl)cc2)c(Cl)c1", "note": "[4-OHPCB 8, 4-hydroxy-2, 4’-dichlorobiphenyl]", "values": [{"measurement": "Ki", "setting": "hSULT2A1 [1]", "value": "5 ± 0.4", "unit": "µM"}, {"measurement": "substrate for hSULT2A1-catalyzed sulfation", "setting": "hSULT2A1 [3]", "value": "served as alternate substrates"}]}, {"molecule": "Oc1ccc(-c2cccc(Cl)c2)cc1Cl", "note": "[4-OHPCB 11, 4-hydroxy-3, 3’-dichlorobiphenyl]", "values": [{"measurement": "Ki", "setting": "hSULT2A1 [1]", "value": "12 ± 0.9", "unit": "µM"}, {"measurement": "substrate for hSULT2A1-catalyzed sulfation", "setting": "hSULT2A1 [3]", "value": "served as alternate substrates"}]}, {"molecule": "Oc1c(Cl)cc(-c2ccccc2)cc1Cl", "note": "[4-OHPCB 14, 4-hydroxy-3,5-dichlorobiphenyl]", "values": [{"measurement": "Ki", "setting": "hSULT2A1 [1]", "value": "13.5 ± 1", "unit": "µM"}, {"measurement": "Kd", "setting": "hSULT2A1 [2]", "value": "2.55 ± 0.63", "unit": "µM"}, {"measurement": "binding pattern to hSULT2A1 (ANS displacement)", "setting": "hSULT2A1 [2]; free enzyme", "value": "classical single-site binding characteristics"}, {"measurement": "Kd", "setting": "hSULT2A1 E-PAP complex", "value": "2.21 ± 0.5", "unit": "µM"}, {"measurement": "substrate for hSULT2A1-catalyzed sulfation", "setting": "hSULT2A1 [3]", "value": "served as alternate substrates"}]}, {"molecule": "Oc1c(Cl)cc(-c2ccccc2Cl)cc1Cl", "note": "[4-OHPCB 34, 4-hydroxy-2’, 3,5-trichlorobiphenyl]", "values": [{"measurement": "Ki", "setting": "hSULT2A1 [1]", "value": "0.8 ± 0.1", "unit": "µM"}, {"measurement": "Kd", "setting": "hSULT2A1 [2]", "value": "2.07 ± 0.3", "unit": "µM"}, {"measurement": "binding pattern to hSULT2A1 (ANS displacement)", "setting": "hSULT2A1 [2]; free enzyme", "value": "classical single-site binding characteristics"}, {"measurement": "Kd", "setting": "hSULT2A1 E-PAP complex", "value": "3.2 ± 0.31", "unit": "µM"}, {"measurement": "substrate for hSULT2A1-catalyzed sulfation", "setting": "hSULT2A1 [3]", "value": "served as alternate substrates"}]}, {"molecule": "Oc1c(Cl)cc(-c2cccc(Cl)c2)cc1Cl", "note": "[4-OHPCB 36, 4-hydroxy-3, 3’, 5-trichlorobiphenyl]", "values": [{"measurement": "Ki", "setting": "hSULT2A1 [1]", "value": "3.4 ± 0.8", "unit": "µM"}, {"measurement": "α value of partial competitive inhibition equation", "setting": "hSULT2A1 [1]", "value": 4.2}, {"measurement": "type of inhibition with respect to DHEA (best-fit kinetic model)", "setting": "hSULT2A1 [1]", "value": "partial competitive inhibition"}, {"measurement": "Kd", "setting": "hSULT2A1 [2]", "value": "2.46 ± 0.43", "unit": "µM"}, {"measurement": "substrate for hSULT2A1-catalyzed sulfation", "setting": "hSULT2A1 [3]", "value": "served as alternate substrates"}]}, {"molecule": "Oc1ccc(-c2ccc(Cl)cc2)cc1", "note": "[4’-OHPCB 3, 4’-hydroxy-4-monochlorobiphenyl]", "values": [{"measurement": "Ki", "setting": "hSULT2A1 [1]", "value": "17 ± 1.5", "unit": "µM"}, {"measurement": "Kd", "setting": "hSULT2A1 [2]", "value": "3.48 ± 1.03", "unit": "µM"}]}, {"molecule": "Oc1ccc(-c2ccccc2Cl)cc1Cl", "note": "[4’-OHPCB 6, 4’-hydroxy-2, 3’-dichlorobiphenyl]", "values": [{"measurement": "Ki", "setting": "hSULT2A1 [1]", "value": "5.4 ± 0.2", "unit": "µM"}, {"measurement": "type of inhibition with respect to DHEA (best-fit kinetic model)", "setting": "hSULT2A1 [1]", "value": "noncompetitive"}]}, {"molecule": "Oc1ccc(-c2cc(Cl)ccc2Cl)cc1", "note": "[4’-OHPCB 9, 4’-hydroxy-2,5-dichlorobiphenyl]", "values": [{"measurement": "Ki", "setting": "hSULT2A1 [1]", "value": "0.7 ± 0.1", "unit": "µM"}, {"measurement": "type of inhibition with respect to DHEA (best-fit kinetic model)", "setting": "hSULT2A1 [1]", "value": "partial noncompetitive inhibition"}, {"measurement": "β value of partial noncompetitive inhibition equation", "setting": "hSULT2A1 [1]", "value": "0.11 ± 0.02"}, {"measurement": "binding pattern to hSULT2A1 (ANS displacement)", "setting": "hSULT2A1 [2]; free enzyme", "value": "multiphasic binding"}, {"measurement": "difference in the multiphasic binding pattern in the presence or absence of either DHEA or PAP", "setting": "hSULT2A1 [2]", "value": "did not show significant differences"}]}, {"molecule": "Oc1ccc(-c2ccc(Cl)c(Cl)c2)cc1", "note": "[4’-OHPCB 12, 4’-hydroxy-3,4-dichlorobiphenyl]", "values": [{"measurement": "Ki", "setting": "hSULT2A1 [1]", "value": "4 ± 0.3", "unit": "µM"}]}, {"molecule": "Oc1ccc(-c2ccc(Cl)cc2Cl)cc1Cl", "note": "[4’-OHPCB 25, 4’-hydroxy-2, 3’, 4-trichlorobiphenyl]", "values": [{"measurement": "Ki", "setting": "hSULT2A1 [1]", "value": "3 ± 0.6", "unit": "µM"}, {"measurement": "type of inhibition with respect to DHEA (best-fit kinetic model)", "setting": "hSULT2A1 [1]", "value": "partial noncompetitive inhibition"}, {"measurement": "β value of partial noncompetitive inhibition equation", "setting": "hSULT2A1 [1]", "value": "0.19 ± 0.06"}, {"measurement": "substrate for hSULT2A1-catalyzed sulfation", "setting": "hSULT2A1 [3]", "value": "served as alternate substrates"}]}, {"molecule": "Oc1ccc(-c2ccc(Cl)c(Cl)c2)c(Cl)c1", "note": "[4’-OHPCB 33, 4’-hydroxy-2’, 3,4-trichlorobiphenyl]", "values": [{"measurement": "Ki", "setting": "hSULT2A1 [1]", "value": "3 ± 0.2", "unit": "µM"}, {"measurement": "binding pattern to hSULT2A1 (ANS displacement)", "setting": "hSULT2A1 [2]; free enzyme", "value": "multiphasic binding"}, {"measurement": "difference in the multiphasic binding pattern in the presence or absence of either DHEA or PAP", "setting": "hSULT2A1 [2]", "value": "did not show significant differences"}, {"measurement": "substrate for hSULT2A1-catalyzed sulfation", "setting": "hSULT2A1 [3]", "value": "served as alternate substrates"}]}, {"molecule": "Oc1c(Cl)cc(-c2ccc(Cl)cc2Cl)cc1Cl", "note": "[4’-OHPCB 68, 4’-hydroxy-2, 3’, 4, 5’-tetrachlorobiphenyl]", "values": [{"measurement": "Ki", "setting": "hSULT2A1 [1]", "value": "0.6 ± 0.1", "unit": "µM"}, {"measurement": "type of inhibition with respect to DHEA (best-fit kinetic model)", "setting": "hSULT2A1 [1]", "value": "partial noncompetitive inhibition"}, {"measurement": "β value of partial noncompetitive inhibition equation", "setting": "hSULT2A1 [1]", "value": "0.23 ± 0.07"}, {"measurement": "Kd", "setting": "hSULT2A1 [2]", "value": "2.26 ± 0.33", "unit": "µM"}, {"measurement": "substrate for hSULT2A1-catalyzed sulfation", "setting": "hSULT2A1 [3]", "value": "served as alternate substrates"}]}, {"molecule": "Oc1ccc(Cl)cc1-c1ccc(Cl)c(Cl)c1", "note": "[6’-OHPCB 35, 6’-hydroxy-3, 3’-4 trichlorobiphenyl]", "values": [{"measurement": "Ki", "setting": "hSULT2A1 [1]; read-out: Ki, inhibition of the sulfation of DHEA catalyzed by hSULT2A1, nonlinear regression fit to noncompetitive inhibition equation (4-OHPCB 36: competitive inhibition equation), 200 µM PAPS, pH 7.0, 37°C", "value": "9 ± 0.5", "unit": "µM"}, {"measurement": "binding pattern to hSULT2A1 (ANS displacement)", "setting": "hSULT2A1 [2]; free enzyme", "value": "multiphasic behavior"}]}]}
